Measured values from US10688099B2, “Methods for modulating the amount of RNA transcripts” (PTC Therapeutics, Inc., priority 2013, dated 2020).

System: RNA isoforms in PNN 1-46 SMA type I patient-derived fibroblasts
Assay: RNA Abundance Modulation (RNA isoform abundance, iFPM, HiSeq RNA sequencing)
Assay type: cell-based, human
Conditions: 3 μM
Protocol: Cells from a cell line of interest are cultured in conditions sufficient to yield the number of cells capable of generating enough RNA for subsequent sequencing steps. Cells from the tested cell line are contacted with a compound described herein.
To culture said cells, they are seeded, at appropriate concentrations in a volume of media in a cell culture container and incubated for 4, 5, 6, 7, 8, 9, 10, or more hours. A concentrated solution of compound in a vehicle (e.g., DMSO) is then added in sufficient volume to result in the intended final concentration of the compound, for example 100 nM, 500 nM, 1 μM, 5 μM, 10 μM, 15 μM, 20 μM, or more. The cells may also be treated with vehicle alone, as a control. A number of replicates of each concentration or control may be made (e.g., 2 replicates). The cells are then incubated at a constant temperature appropriate for cell culture of the particular cell line (e.g., 37° C.) for 6, 12, 18, 24, 48, or more hours. After incubation, the growth medium is removed and the cells are washed with the appropriate buffer (e.g., PBS). Cells are then removed from adherence to the cell culture container by treatment with a solution containing trypsin, and the trypsin subsequently quenched with the appropriate volume of buffer (e.g., DMEM-FBS). The cells are then pelleted with gentle centrifugation (e.g., ≤90×g centrifugal force) and resuspended in a buffer to lyse the cells for extraction of RNA. The cell lysates may then be frozen (e.g., at −80° C.) or, alternately, may immediately be used in a procedure to purify the RNA (e.g. by use of the RNEASY PLUS® minikit). The RNA from cell lysates is eluted in the appropriate volume of buffer (e.g., RNEASE-FREE H2O®). The resulting purified RNA may then be sequenced (e.g., using RNASeq) or analyzed using a human exon array (e.g., by GENECHIP® human exon array) to determine changes in the RNA levels in those cells treated with compound compared to those cells treated only with DMSO. The purified RNA may also be quantified by other methods known in the art.
Using the RNA data obtained from sequencing, exon array, or other methods, a statistical analysis can reveal changes in the RNA levels of compound-treated compared with control. For example, t-test p-values may be calculated for the data obtained through sequencing and exon array methods in order to compare compound-treated cells to those treated with the DMSO control. […] Analysis of the sequencing and exon array data may then also yield predictions about the cause of the aberrant amount of an RNA transcript in the cells (e.g., perturbation of RNA splicing, RNA transcription, or RNA stability). These predictions may be further confirmed by methods known in the art. For example, RT-PCR and RT-qPCR may be used to confirm the change in amount of RNA transcripts for one or more particular transcripts of interest.
Following the methods described above in Example 1, PNN 1-46 SMA type I patient-derived fibroblasts were treated with 300 nM or 3 μM Compounds 774 and 808 in 0.5% DMSO.
700,000 cells were seeded in 10 mL of medium (DMEM plus 10% FBS) in a T-75 flask. Cells were allowed to attach for at least 4 hrs, after which 50 μL of a 200× compound solution (100% DMSO) was added to each well, and the plate was incubated at 37° C. for 24 hrs.
At the end of the incubation period, the supernatant was removed and the cells where washed with PBS. TrypLE (Invitrogen) express solution was added (e.g. 1.5 mL per one T75 flask). The flasks were incubated for 3 to 5 min at 37° C. The trypsin was then quenched, e.g., by adding 10 mL DMEM-FBS.
Next, the cells were pelleted using gentle centrifugation without exceeding 90×g centrifugal force. The supernatant was removed and the cell pellet was re-suspended in 600 μL RLT buffer (the RLT buffer was supplemented with beta-mercaptoethanol according to the RNeasy protocol manual) by pipetting up and down until the pellet was completely dissolved […]

SMILES: CCc1nc(C)cn2nc(-c3cc(=O)n4cc(C5CCN(C)CC5)cc(C)c4n3)cc12 [Compound 774]
- L2FC (x + 1) (TBC1D15 NR_027449): −2.621
- L2abs (Cpd-DMSO) (TBC1D15 NR_027449): 6.94
- abs (Cpd-DMSO) (TBC1D15 NR_027449): 123 iFPM
- amp FC (x + 1) (TBC1D15 NR_027449): 6.15
- ave Cpd (TBC1D15 NR_027449): 23 iFPM
- FC (x + 1) (TEP1 AB209669): 1.0000
- L2FC (x + 1) (TEP1 AB209669): 0.000
- L2abs (Cpd-DMSO) (TEP1 AB209669): 0
- abs (Cpd-DMSO) (TEP1 AB209669): 0 iFPM
- amp FC (x + 1) (TEP1 AB209669): 1.00
- ave Cpd (TEP1 AB209669): 0 iFPM
- FC (x + 1) (TEP1 AK303307): 1.3304
- L2FC (x + 1) (TEP1 AK303307): 0.412
- L2abs (Cpd-DMSO) (TEP1 AK303307): 1.91
- abs (Cpd-DMSO) (TEP1 AK303307): 4 iFPM
- amp FC (x + 1) (TEP1 AK303307): 1.33
- ave Cpd (TEP1 AK303307): 14 iFPM
- FC (x + 1) (TEP1 BC143812): 0.8125
- L2FC (x + 1) (TEP1 BC143812): −0.300
- L2abs (Cpd-DMSO) (TEP1 BC143812): 4.99
- abs (Cpd-DMSO) (TEP1 BC143812): 32 iFPM
- amp FC (x + 1) (TEP1 BC143812): 1.23
- ave Cpd (TEP1 BC143812): 137 iFPM
- FC (x + 1) (TEP1 BC143815): 0.0138
- L2FC (x + 1) (TEP1 BC143815): −6.184
- L2abs (Cpd-DMSO) (TEP1 BC143815): 6.16
- abs (Cpd-DMSO) (TEP1 BC143815): 72 iFPM
- amp FC (x + 1) (TEP1 BC143815): 72.71
- ave Cpd (TEP1 BC143815): 0 iFPM
- FC (x + 1) (TEP1 BX640983): 1.1188
- L2FC (x + 1) (TEP1 BX640983): 0.162
- L2abs (Cpd-DMSO) (TEP1 BX640983): 0.61
- abs (Cpd-DMSO) (TEP1 BX640983): 2 iFPM
- amp FC (x + 1) (TEP1 BX640983): 1.12
- ave Cpd (TEP1 BX640983): 13 iFPM
- FC (x + 1) (TEP1 NM_007110): 1.0236
- L2FC (x + 1) (TEP1 NM_007110): 0.034
- L2abs (Cpd-DMSO) (TEP1 NM_007110): 3.20
- abs (Cpd-DMSO) (TEP1 NM_007110): 9 iFPM
- amp FC (x + 1) (TEP1 NM_007110): 1.02
- ave Cpd (TEP1 NM_007110): 397 iFPM
- FC (x + 1) (TFCP2 AK308087): 0.8370
- L2FC (x + 1) (TFCP2 AK308087): −0.257
- L2abs (Cpd-DMSO) (TFCP2 AK308087): 4.27
- abs (Cpd-DMSO) (TFCP2 AK308087): 19 iFPM
- amp FC (x + 1) (TFCP2 AK308087): 1.19
- ave Cpd (TFCP2 AK308087): 98 iFPM
- FC (x + 1) (TFCP2 NM_005653): 0.8324
- L2FC (x + 1) (TFCP2 NM_005653): −0.265
- L2abs (Cpd-DMSO) (TFCP2 NM_005653): 7.35
- abs (Cpd-DMSO) (TFCP2 NM_005653): 163 iFPM
- amp FC (x + 1) (TFCP2 NM_005653): 1.20
- ave Cpd (TFCP2 NM_005653): 808 iFPM
- FC (x + 1) (TFCP2 NM_001173452): 4.0384
- L2FC (x + 1) (TFCP2 NM_001173452): 2.014
- L2abs (Cpd-DMSO) (TFCP2 NM_001173452): 7.49
- abs (Cpd-DMSO) (TFCP2 NM_001173452): 180 iFPM
- amp FC (x + 1) (TFCP2 NM_001173452): 4.04
- ave Cpd (TFCP2 NM_001173452): 239 iFPM
- FC (x + 1) (TFCP2 NM_001173453): 0.0531
- L2FC (x + 1) (TFCP2 NM_001173453): −4.236
- L2abs (Cpd-DMSO) (TFCP2 NM_001173453): 4.16
- abs (Cpd-DMSO) (TFCP2 NM_001173453): 18 iFPM
- amp FC (x + 1) (TFCP2 NM_001173453): 18.84
- ave Cpd (TFCP2 NM_001173453): 0 iFPM
- FC (x + 1) (TGFBRAP1 AK021697): 0.2793
- L2FC (x + 1) (TGFBRAP1 AK021697): −1.840
- L2abs (Cpd-DMSO) (TGFBRAP1 AK021697): 4.66
- abs (Cpd-DMSO) (TGFBRAP1 AK021697): 25 iFPM
- amp FC (x + 1) (TGFBRAP1 AK021697): 3.58
- ave Cpd (TGFBRAP1 AK021697): 9 iFPM
- FC (x + 1) (TGFBRAP1 NM_004257): 0.0064
- L2FC (x + 1) (TGFBRAP1 NM_004257): −7.294
- L2abs (Cpd-DMSO) (TGFBRAP1 NM_004257): 7.29
- abs (Cpd-DMSO) (TGFBRAP1 NM_004257): 156 iFPM
